Test results reported in BindingDB's records for doi:10.1021/jm00154a024 (1986).

Experiment: The compound was tested for the inhibition of alanine racemase from Pseudomonas aeruginosa

Structure (SMILES): CCC(=N)P(=O)(O)O
- Ki: 8.5 mM
